One test deals with A549. Nature of the test: Antiproliferative activity against human A549 cells after 48 hrs by MTT assay. It counts as functional, cell-based. The conditions noted are these: A549, 48 h. For orientation: Tetrazolium assays rely on reduction of a dye to a coloured formazan, in cell work by metabolically active cells.
Test [1] can be described thus: Antiproliferative activity against human BCG823 cells after 48 hrs by MTT assay. Format: functional, cell-based. The conditions noted are these: BCG823, 48 h.
The test system of test [2] is HepG2. Put plainly: Antiproliferative activity against human HepG2 cells after 48 hrs by MTT assay. It counts as functional, cell-based. The conditions noted are these: HepG2, 48 h.
The test system of test [3] is HepG2. Nature of the test: Induction of apoptosis in human HepG2 cells assessed as viable cells at 3 uM after 72 hrs by annexin V and propidium iodide staining-based flow cytometric analysis (reference value: 94.5 +/- 0.6%). It counts as functional. The conditions noted are these: HepG2, 72 h, read-out: Activity.
The subject of test [4] is HepG2. Nature of the test: Induction of apoptosis in human HepG2 cells assessed as early apoptotic cells at 0.75 uM after 72 hrs by annexin V and propidium iodide staining-based flow cytometric analysis (reference value: 1.4 +/- 0.1%). Format: functional.
The subject of test [5] is HepG2. Put plainly: Induction of apoptosis in human HepG2 cells assessed as early apoptotic cells at 3 uM after 72 hrs by annexin V and propidium iodide staining-based flow cytometric analysis (reference value: 1.4 +/- 0.1%). Format: functional. A general note: A flow cytometer gives signals particle by particle.
The test system of test [6] is HepG2. Put plainly: Induction of apoptosis in human HepG2 cells assessed as viable cells at 0.75 uM after 72 hrs by annexin V and propidium iodide staining-based flow cytometric analysis (reference value: 94.5 +/- 0.6%). Format: functional. The conditions noted are these: HepG2, 72 h, read-out: Activity.
Test [7] concerns HepG2. Nature of the test: Induction of apoptosis in human HepG2 cells assessed as late apoptotic cells at 0.75 uM after 72 hrs by annexin V and propidium iodide staining-based flow cytometric analysis (reference value: 1.4 %). It counts as functional.
The subject of test [8] is HepG2. Put plainly: Induction of apoptosis in human HepG2 cells assessed as late apoptotic cells at 1.5 uM after 72 hrs by annexin V and propidium iodide staining-based flow cytometric analysis (reference value: 1.4 %). Format: functional.
The subject of test [9] is HepG2. Put plainly: Induction of apoptosis in human HepG2 cells assessed as chromatin condensation at 0.75 to 3 uM after 72 hrs by DAPI staining-based fluorescent microscopic analysis. It counts as functional, cell-based.
In test [10] the test system is HepG2. Put plainly: Induction of apoptosis in human HepG2 cells assessed as late apoptotic cells at 3 uM after 72 hrs by annexin V and propidium iodide staining-based flow cytometric analysis (reference value: 1.4 %). It counts as functional.
Test [11] has as its system HepG2. Put plainly: Induction of apoptosis in human HepG2 cells assessed as necrotic cells at 0.75 uM after 72 hrs by annexin V and propidium iodide staining-based flow cytometric analysis (reference value: 2.7 +/- 0.1%). It counts as functional.
Test [12] has as its system HepG2. Nature of the test: Induction of apoptosis in human HepG2 cells assessed as viable cells at 1.5 uM after 72 hrs by annexin V and propidium iodide staining-based flow cytometric analysis (reference value: 94.5 +/- 0.6%). It counts as functional. The conditions noted are these: HepG2, 72 h, read-out: Activity.
Test [13] relates to HepG2. Nature of the test: Induction of apoptosis in human HepG2 cells assessed as necrotic cells at 3 uM after 72 hrs by annexin V and propidium iodide staining-based flow cytometric analysis (reference value: 2.7 +/- 0.1%). Format: functional.
The subject of test [14] is HepG2. Nature of the test: Induction of apoptosis in human HepG2 cells assessed as necrotic cells at 1.5 uM after 72 hrs by annexin V and propidium iodide staining-based flow cytometric analysis (reference value: 2.7 +/- 0.1%). Format: functional.
For test [15], the system named is HepG2. Nature of the test: Induction of apoptosis in human HepG2 cells assessed as early apoptotic cells at 1.5 uM after 72 hrs by annexin V and propidium iodide staining-based flow cytometric analysis (reference value: 1.4 +/- 0.1%). Format: functional.
The subject of test [16] is HepG2. Put plainly: Induction of apoptosis in human HepG2 cells assessed as karyopyknosis at 0.75 to 3 uM after 72 hrs by DAPI staining-based fluorescent microscopic analysis. Format: functional, cell-based.

The source of these data is ChEMBL document CHEMBL3120064, “Synthesis and biological evaluation of baicalein derivatives as potent antitumor agents” (Bioorg Med Chem Lett, 2014).

The source made the active and inactive calls. No cut-off for these calls is given here.

With `COc1cc2oc(-c3ccccc3)cc(=O)c2c(O)c1OCCCN1CCCC1`, the concentration for half-maximal inhibition (IC50) – broadly, the concentration at which inhibition is half-maximal – in the test with A549 was determined as 6 µM; in test [1], 6.5 µM; with HepG2 [2], 4.3 µM.

Take `COc1cc2oc(-c3ccccc3)cc(=O)c2c(O)c1OCCCN1CCN(C)CC1`: the IC50 came to 18 µM with A549, 31.3 µM in test [1] and 15.1 µM in the test with HepG2 [2].

Regarding `O=c1cc(-c2ccccc2)oc2cc(OCc3ccccc3)c(OCCCCN3CCCCC3)c(O)c12`, the IC50 amounted to 1.9 µM in the test on A549, 3 µM in [1] and 2.4 µM in the test with HepG2 [2].

`O=c1cc(-c2ccccc2)oc2cc(O)c(OCCCCN3CCCCC3)c(O)c12`: the values for the IC50 (with A549; in [1]; in the test with HepG2 [2]) were 75 µM, 52.7 µM and over 100 µM, respectively.

Take `CN1CCN(CCCCOc2c(OCc3ccccc3)cc3oc(-c4ccccc4)cc(=O)c3c2O)CC1`: the IC50 was found to be 4.4 µM with A549, 7.2 µM in test [1] and 2.5 µM in the test with HepG2 [2].

On to `COc1cc2oc(-c3ccccc3)cc(=O)c2c(O)c1OCCCCN1CCN(C)CC1`, for which the IC50 was 32 µM in the test on A549, 53.5 µM in [1] and 36.7 µM in the test on HepG2 [2].

`COc1cc2oc(-c3ccccc3)cc(=O)c2c2c1OCCCO2`: the IC50 with A549 was 51.3 µM; in test [1], over 100 µM; in the test on HepG2 [2], 69 µM.

Consider `O=c1cc(-c2ccccc2)oc2cc(OCc3ccccc3)c(OCCCN3CCCCC3)c(O)c12`, for which the values for the IC50 (with A549; in [1]; in the test on HepG2 [2]) were 3.1 µM, 4.6 µM and 2.2 µM, respectively.

On to `O=c1cc(-c2ccccc2)oc2cc(O)c(OCCCN3CCOCC3)c(O)c12`, for which the IC50 in the test on A549 is over 100 µM; in test [1], 88.3 µM; in the test with HepG2 [2], 86.2 µM.

Consider `O=c1cc(-c2ccccc2)oc2cc(OCc3ccccc3)c(OCCCN3CCOCC3)c(O)c12`, for which the IC50 was over 100 µM in the test with A549, 51.4 µM in test [1] and 75.8 µM with HepG2 [2].

As for `COc1cc2oc(-c3ccccc3)cc(=O)c2c2c1OCCCCO2`, the IC50 (in the test with A549; in [1]; in the test with HepG2 [2]) was over 100 µM throughout.

`COc1cc2oc(-c3ccccc3)cc(=O)c2c(O)c1OCCCCN1CCCC1`: the values for the IC50 (in the test with A549; in test [1]; in the test on HepG2 [2]) were 13 µM, 10.6 µM and 4.9 µM, respectively.

In the case of `CN1CCN(CCCCOc2c(O)cc3oc(-c4ccccc4)cc(=O)c3c2O)CC1`, the IC50 with A549 was over 100 µM; in [1] it was 82.9 µM; with HepG2 [2], 93.7 µM.

As for `CN(C)CCCOc1c(OCc2ccccc2)cc2oc(-c3ccccc3)cc(=O)c2c1O`, the IC50 with A549 was 2.6 µM; in [1] it was 5.5 µM; in the test on HepG2 [2], 2.2 µM.

Turning to `CCN(CC)CCCCOc1c(OCc2ccccc2)cc2oc(-c3ccccc3)cc(=O)c2c1O`, the IC50 was determined as 1.8 µM with A549, 4.2 µM in test [1] and 2.2 µM with HepG2 [2].

For `CN1CCN(CCCOc2c(OCc3ccccc3)cc3oc(-c4ccccc4)cc(=O)c3c2O)CC1`, the IC50 in the test on A549 stood at 1.3 µM; in test [1], 4.1 µM; with HepG2 [2], 2.4 µM.

For the compound `COc1cc2oc(-c3ccccc3)cc(=O)c2c(O)c1OCCCCN1CCCCC1`, the IC50 with A549 was 34 µM; in [1], 21.9 µM; in the test with HepG2 [2], 21 µM.

In the case of `COc1cc2oc(-c3ccccc3)cc(=O)c2c(O)c1OCCCCN1CCOCC1`, the values for the IC50 (with A549; in [1]; with HepG2 [2]) were 25 µM, 27.2 µM and 19.8 µM, respectively.

In the case of `O=c1cc(-c2ccccc2)oc2cc(OCc3ccccc3)c(OCCCCN3CCOCC3)c(O)c12`, the IC50 in the test with A549 is over 100 µM; in [1] it was 83.6 µM; with HepG2 [2], over 100 µM.

In the case of `O=c1cc(-c2ccccc2)oc2cc(O)c(O)c(O)c12` [BAICALEIN], the results for the IC50 (in the test with A549; in test [1]; in the test with HepG2 [2]) were 13 µM, 19.1 µM and 28.3 µM, respectively.

Take `O=c1cc(-c2ccccc2)oc2cc(OCc3ccccc3)c(OCCCN3CCCC3)c(O)c12`: the IC50 in the test on A549 was 1.4 µM; in test [1] it was over 100 µM; in the test on HepG2 [2] it was 4.2 µM.

With `O=c1cc(-c2ccccc2)oc2cc(O)c(OCCCN3CCCC3)c(O)c12`, the IC50 (with A549; in [1]; in the test with HepG2 [2]) was over 100 µM in each case.

With `COc1cc2oc(-c3ccccc3)cc(=O)c2c(O)c1OCCCN1CCCCC1`, the figures for the IC50 (in the test with A549; in [1]; in the test on HepG2 [2]) were 17 µM, 25.3 µM and 22.3 µM, respectively.

As to `O=c1cc(-c2ccccc2)oc2cc(O)c(OCCCN3CCCCC3)c(O)c12`, the IC50 is over 100 µM in the test on A549, 60.9 µM in test [1] and 70.6 µM in the test with HepG2 [2].

In the case of `O=c1cc(-c2ccccc2)oc2cc(O)c(OCCCCN3CCOCC3)c(O)c12`, the results for the IC50 (with A549; in [1]; in the test with HepG2 [2]) were over 100 µM, 58.7 µM and 67.2 µM, respectively.

On to `O=c1cc(-c2ccccc2)oc2cc(OCc3ccccc3)c(OCCCCN3CCCC3)c(O)c12`, for which the viability at 3 µM with HepG2 [3] is 11.1%. In addition, the Activity in the test on HepG2 [4] was determined as 3.2%; with HepG2 [5], 30%; in the test with HepG2 [7], 2.2%; in the test on HepG2 [8], 6.3%; with HepG2 [10], 50.6%; in the test with HepG2 [11], 5.2%. Besides, the Activity in the test on HepG2 [13] was found to be 8.3%; in the test with HepG2 [14] it was 11.1%; in the test with HepG2 [15] it was 5.1%. The values for the IC50 (in the test on A549; in test [1]; in the test with HepG2 [2]) were 0.8 µM, 3.2 µM and 2 µM, respectively. In addition, in the test on HepG2 [6], the viability at 0.75 µM was determined as 89.5%. Moreover, the result in the test on HepG2 [9] and with HepG2 [16] was Active. Also, the viability at 1.5 µM in the test on HepG2 [12] was found to be 77.5%.

As for `COc1cc2oc(-c3ccccc3)cc(=O)c2c(O)c1OCCCN1CCOCC1`, the IC50 in the test on A549 amounted to 14 µM; in test [1], 43.1 µM; in the test on HepG2 [2], 9.2 µM.

In the case of `CCN(CC)CCCCOc1c(OC)cc2oc(-c3ccccc3)cc(=O)c2c1O`, the IC50 with A549 is 35 µM; in [1] it was 17.4 µM; in the test with HepG2 [2], 7.1 µM.

As for `O=c1cc(-c2ccccc2)oc2cc(O)c(OCCCCN3CCCC3)c(O)c12`, the IC50 with A549 is 51 µM; in test [1], 86.4 µM; in the test on HepG2 [2] it was over 100 µM.

For `CCN(CC)CCCOc1c(OC)cc2oc(-c3ccccc3)cc(=O)c2c1O`, the IC50 in the test on A549 stood at 4.9 µM; in test [1] it was 5.7 µM; with HepG2 [2], 3.7 µM.
